Data reported in US11154621B2, “Liponucleotide-based therapy for COPD” (priority 2017, dated 2021).

Tests used:
[1] = test system: elastase-induced emphysema in C57BL/6 mice; assay: Mouse model of emphysema (intratracheal elastase administration); type: in vivo; settings: daily i.p. days 1-13, day 14
Description: To experimentally determine the efficacy of the liponucleotides (lipoNTs) CDP-choline (CDP-CHO), CDP-ethanolamine (CDP-ETH), and CDP-diacylglycerol 16:0/16:0 (CDP-DAG) as therapeutics in a mouse model of emphysema (intratracheal elastase administration) (Yoshida S, et al. Am J Physiol Lung Cell Mol Physiol 2012 303:L852-L860).
(§1) To induce emphysema, porcine pancreatic elastase was administered intratracheally to adult female C57BL/6 mice (n=5-10 per group) by per os intubation under light anesthesia at day 0 and day 7. LipoNTs were administered daily by the intraperitoneal route in 50 μl sterile saline at the timepoints indicated for each group.
Analysis of elastase and lipoNT effects: Data were collected 14 days after first elastase administration in terminal experiments.
1. Static lung compliance (CST) was measured in live mice by the forced-oscillation method using the SciReq flexiVent computer-controlled mechanical ventilator, as in previous studies (Traylor Z P, Yet al. Am J Physiol Lung Cell Mol Physiol 2010 298:L437-L445).
2. Following flexiVent analysis, bronchoalveolar lavage was performed on all mice using 0.8 ml PBS. BALF total and differential cell counts (trypan-blue stained live cells and Giemsa-stained cytospins, respectively) were performed on cell pellets to assess inflammatory cell infiltrates. BALF alveolar macrophage (AM) counts were determined.

[2] = test system: BLEO-induced pulmonary fibrosis in C57BL/6 mice; assay: Mouse model of pulmonary fibrosis (bleomycin exposure); type: in vivo; settings: for Mortality: CDP-CHO, CDP-ETH 5 mg/kg, CDP-DAG 0.5 mg/kg
Description: To experimentally determine the efficacy of the liponucleotides (lipoNTs) CDP-choline (CDP-CHO), CDP-ethanolamine (CDP-ETH), and CDP-diacylglycerol 16:0/16:0 (CDP-DAG) as therapeutics in a mouse model of pulmonary fibrosis (bleomycin exposure) (Chung S, et al. Oncotarget 2016 7:17532-17546).
as §1, with “bleomycin (BLEO)” for “porcine pancreatic elastase”, “light ketamine/xylazine” for “light”, “0.” for “0 and day 7.”
Data were collected 21 days after first exposure to BLEO in terminal experiments.
2. Carotid arterial O2 saturation (SaO2) and heart rate were measured in conscious individually-identified animals by pulse oximetry using the MouseOx system.
3. Static lung compliance (CST) was measured in live mice by the forced-oscillation method using the SciReq flexiVent computer-controlled mechanical ventilator, as in previous studies (Traylor Z P, et al. Am J Physiol Lung Cell Mol Physiol 2010 298:L437-L445).
4. Following flexiVent analysis, lungs were removed and flash frozen in liquid N2 for analysis of collagen content. Soluble collagen was measured by a standard Sircol assay.

[3] = test system: influenza A/WSN/33 (H1N1)-infected mice; assay: Effect of influenza infection and i.p. liponucleotide treatment on lung function; type: in vivo, mouse
[4] = infected mice, day 6, i.p. daily from 1-5 days post-infection, CDP-CHO, CDP-ETH 100 μg/mouse, CDP-DAG 10 μg/mouse

Question: `C[N+](C)(C)CCOP(=O)(O)OP(=O)(O)OC[C@H]1O[C@@H](n2ccc(N)nc2=O)C(O)C1O` (stereo partly shown) [CDP-CHO, CDP-choline] was tested. Which “static lung compliance (CST)” value ([1]; CDP-CHO, CDP-ETH 5 mg/kg, CDP-DAG 0.5 mg/kg) did it give?
Answer: decreases CST

Question: And the “elastase-induced increase in BALF alveolar macrophages (AMs)” value [1]?
Answer: enhanced

Question: What about the Mortality ([2]; BLEO, daily i.p. D1-20, day 21) of the same compound?
Answer: significantly attenuated BLEO-induced mortality

Question: And the Mortality ([2]; BLEO, daily i.p. D1-20, day 21, listed as CHO)?
Answer: 20%

Question: What about the “CST (ml/cmH2O ×10)” value ([2]; BLEO, daily i.p. D1-20, day 21) of the same compound?
Answer: 0.38 ± 0.02 ml/cmH2O ×10

Question: What about the “SaO2 (%)” value ([2]; BLEO, daily i.p. D1-20, day 21) of the same compound?
Answer: 97.0 ± 1.0%

Question: What about the “Collagen” value ([2]; BLEO, daily i.p. D1-20, lung soluble collagen, day 21) of the same compound?
Answer: 0.79 ± 0.08 mg/mL

Question: And the “other beneficial effects in this model of pulmonary fibrosis” value ([2]; daily from 1-20 days after BLEO)?
Answer: no other beneficial effects

Question: And the PaO2 equivalent ([3]; equivalent of SaO2 increase, from approximately 65 mmHg)?
Answer: approximately 85 mmHg

Question: What about the “O2 carrying capacity of blood (CaO2)” value ([3]; equivalent of SaO2 increase, from approximately 88%) of the same compound?
Answer: approximately 97 % of normal

Question: And the “SaO2 after CDP-choline treatment” value ([3]; increased from approximately 85%, infected mice)?
Answer: approximately 96%

Question: What about the “effects of single dose treatment late in infection compared with daily treatment” value ([3]; infected mice) of the same compound?
Answer: as good as those of daily treatment

Question: And the “SaO2 (%)” value [3, 4]?
Answer: 93.5 ± 1.0 %

Question: How did the “HR (bpm)” value [3, 4] turn out when CDP-diacylglycerol [CDP-DAG] was run?
Answer: 600 ± 10 bpm

Question: And the “SaO2 (%)” value [3, 4]?
Answer: 95.2 ± 1.6 %

Question: What about the “WET:DRY” value [3, 4] of the same compound?
Answer: 5.8 ± 0.1
